Tested on: adult rat retinal ganglion cells (RGC)
Assay: Cultured adult rat RGC survival under cytotoxic insults (Example 4)
Format: cell-based
Details: 30 min pre-treatment, then 100 μM glutamate for 3 days
Experimental: Adult Sprague-Dawley rats were euthanized by CO2 asphyxiation. Their eyes were enucleated and the retinas isolated. Retinal cells were treated with of papain solution for 25 min at 37° C., then washed 3 times with 5 mL RGC culture medium (Neurobasal medium with various nutrient supplements+1% fetal calf serum). Retinal cells were dispersed by trituration. Cell suspension was placed onto poly-D-lysine- and laminin-coated 8-well chambered culture slides. The cells were then cultured in 95% air/5% CO2 at 37° C.
For glutamate-induced toxicity studies, cells were pre-treated with vehicle or the indicated compounds for 30 minutes, followed by 100 μM glutamate for 3 days.
For trophic factor withdrawal studies, three trophic factors, basic fibroblast growth factor, brain-derived neurotrophic factor, and ciliary neurotrophic factor, were removed from the culture medium. Cells were cultured in this medium with the indicated compounds for 3 days.
At the end of the incubation period, the cells were fixed and labeled for Thy-1, a RGC marker, by immunocytochemistry. Cell survival was quantified by manually counting Thy-1-positive healthy cells in each well.

## C[C@]12N[C@H](Cc3ccccc31)c1ccccc12 [MK801]
  RGC survival, glutamate-induced toxicity (Thy-1-positive healthy cells): prevented

Source: patent publication US7803824B2, “Use of inhibitors of Jun N-terminal kinases to treat glaucoma” (Alcon, Inc., priority 2004, dated 2010)
